According to publication PMC13198257, “An aerosolized dual-action autotaxin inhibitor-PPARγ agonist for the treatment of pulmonary fibrosis” (Cell Reports Medicine, 2026):

What was measured:
NHLFs = test: Mitotracker assay in NHLFs; format: cell-based, human; conditions: 25 μM, TGFβ 10 ng/mL, 24 h
Experimental: NHLFs were plated at a density of 1,2 × 10^4 cells/well of a 96-well plate. The next day TGFβ (10 ng/mL) and EL244 (25 μM) or vehicle (DMSO) were added to the respective wells and incubated for 24 h. Medium was replaced with DMEM without phenol red that contained LumiTracker Mito Red CMXRos at 25 nM and a 30 min incubation followed. Medium was replaced with fresh DMEM without phenol red and without Lumitracker. Fluorescence was measured (excitation at 580 nm and reading at 600 nm) with a Tecan M200 Fluorimeter and normalized with cell number per well as measured with a Tecan Cyto Spark after cell fixation with PFA at a final concentration of 2%.

3T3-L1 = test: Differentiation of 3T3-L1 fibroblasts into adipocytes; format: cell-based
Experimental: Adipogenic differentiation was carried out following a well-established protocol.[63]^,[142] Upon reaching approximately 70% confluence, cells were induced to differentiate (day 0) by replacing the culture medium with complete DMEM containing 10μg/mL insulin. Experimental groups received either EL244 (1μM or 10μΜ) or the standard adipogenic induction cocktail consisting of 1μM dexamethasone (DEX) and 0.5mM 3-isobutyl-1-methylxanthine (IBMX), as indicated. On day 3, the medium was replaced with complete DMEM supplemented with 10μg/mL insulin, with continued exposure to EL244 (1μM or 10μM) in the respective treatment groups. On day 6, the medium was refreshed with complete DMEM containing the corresponding concentrations of EL244.
Differentiated adipocytes were fixed with 10% formalin solution for 2 h, washed with 60% isopropanol, and stained with filtered 0.3% (w/v) Oil red O solution for 20 min. Following staining, cells were washed three times with dH2O to remove excess dye and observed using a bright-field microscope. Fow quantification, cells were destained with 100% isopropanol and lipid accumulation levels were quantified by Oil red O absorption at 500nm.

liver = test: Serum ALT/AST after 2 weeks of inhaled EL244; format: in vivo, mice; conditions: 2 weeks inhaled 15 mg/kg o.d.
Experimental: Figure S7. Inhaled prophylactic EL244 administration attenuates BLM-induced pulmonary fibrosis. Related to […]
EL244 was administered via inhalation at 15 mg/kg, once daily, from one day before to 14 days after bleomycin (BLM) administration (day 0). The compound was dissolved in 15% Kolliphor in saline. The vehicle (15% Kolliphor in saline) was administered to both the SAL and BLM control groups.
(A) Weight change in the different mouse groups during the 2 weeks of the pulmonary fibrosis experiment.
(B-D) Respiratory mechanics assessed using the FlexiVent system (n=6,8,7). Parameters include mean static lung compliance (B), mean respiratory system compliance (C) and mean total lung capacity (D).
(E) Total protein concentration in BALFs, as determined with the Bradford assay (n=6,8,7).
(F) Inflammatory cell numbers in BALFs, as counted with a hematocytometer (n=6,8,7).
(G) Soluble collagen levels in the BALFs were detected with the direct red assay (n=6,8,7). […]
(J) Quantification of fibrosis severity in H&E-stained lung sections via Ashcroft scoring (n=6,8,7). […]
Following normality testing, statistical significance was assessed with one-way ANOVA and post-hoc Tukey’s test (B, C, D, E, K/ALT, K/ALT/AST) or Welch ANOVA and post-hoc Games-Howell test (F, G, H, J) or Kruskal Wallis and post-hoc Dunn’s test (K/AST); */**/***/**** denote p<0.05/0.01/0.001/0.0001, respectively.

human PCLS = test: Human PCLS with pro-fibrotic cocktail; format: cell-based; conditions: 25 and 50 μΜ
Experimental: hPCLS were prepared from tumour-free lung tissue obtained during surgical resection from a patient undergoing surgery for pulmonary adenocarcinoma (Subject ID: LB26-0020). The biopsy was provided by the Biobanque CRB-Tumorothèque de Nice, Biobanque CHU de Nice (BB-0033-00025; approved protocol # CSE 2022-EV34), collected after written informed consent, in accordance with the Declaration of Helsinki and applicable French regulations for human biological materials.
The lung biopsy was rinsed thoroughly with Hank’s balanced salt solution (HBSS, Sigma-Aldrich) supplemented with antibiotics. The tissue was then infused with a 2.5% low-melting agarose solution prepared in DMEM/F-10 containing antibiotics, maintained at 40°C, and rapidly cooled to solidify the agarose. 8 mm tissue punches were then excised and sectioned into 300 μm-thick slices using the Compresstome VF-300-0Z (Precisionary Instruments). Each hPCLS was transferred into an individual well of a 24-well plate containing 500 μL of culture medium supplemented with 1× antibiotic–antimycotic solution (penicillin, streptomycin, amphotericin B), 50 μg/mL gentamicin, 1× insulin-transferrin-selenium (ITS) supplement, and 0.1% FBS. Slices were incubated at 37°C in a humidified atmosphere with 5% CO2. The culture medium was replaced after several hours.
Fibrosis was induced by a pro-fibrotic cocktail (PFC; 5 ng/mL TGF-β1, […] PDGF-AB, 10 ng/mL TNF-a and 5 μM LPA 18:1), following a well-established protocol.[73] Individual PCLS were first incubated with the PFC for 48 h. After this initial exposure, the medium was renewed and PCLS were treated for an additional 72 h with either PFC alone or PFC supplemented with EL244 (25 μM or 50 μM). Untreated PCLS served as controls.

[1] = PK of EL244: plasma and lung levels after i.p. or inhaled administration; format: in vivo, mice

With `O=C1NC(=O)C(Cc2ccc(OCCC3CCN(C(=O)OCc4cc(Cl)cc(Cl)c4)CC3)cc2)S1` (stereo not drawn) [EL244, 3,5-dichlorobenzyl 4-(2-(4-((2,4-dioxothiazolidin-5-yl)methyl)phenoxy)ethyl)piperidine-1-carboxylate] the TGF-β-induced mitochondrial activation (NHLFs) was “reduced TGF-β-induced mitochondrial activation”, the “Adipogenesis (oil red O lipid droplets)” value (3T3-L1; 1 or 10 μM with insulin, compared with IBMX/DEX) was “promoted adipogenesis dose responsively” and the “Expression of PPARγ target genes (Adipoq, Fabp4, CD36) and PPARγ” value (3T3-L1; RT-qPCR) was “induced the expression of several PPARγ target genes”. For the same compound, the “Liver toxicity (ALT/AST levels)” value (liver) was “did not cause any appreciable toxicity in the liver”, the “Col1a1 and Acta2 mRNA expression” value (human PCLS) was “downregulation” and the “Development of fibrosis (histology)” value (human PCLS) was “prevented and/or attenuated the development of fibrosis”. The “PPARγ target gene expression” value (human PCLS) was “upregulated the expression of PPARγ target genes”, the Plasma concentration ([1]; i.p. 30 mg/Kg, 3 h) was roughly 35 μΜ and the “Clearance rate from the lung and absorption in the systemic circulation” value ([1]; inhaled 15 mg/kg) was “low”. For the same compound, the “Retention in the lung” value ([1]; inhaled 15 mg/kg) was “highly retained in the lung”, the concentration at 1 h ([1]; mouse, plasma, ip, i.p. 30 mg/Kg, 1 hour) was 40 µM and the concentration at 9 h ([1]; mouse, plasma, ip, i.p. 30 mg/Kg, 9 h post-dose) was 15 µM.
